# Results as given in article PMC8760490, “Discovery of novel furanylbenzamide inhibitors that target oncogenic tyrosine phosphatase SHP2 in leukemia cells” (The Journal of Biological Chemistry, 2021).
# Read-outs that look alike come from different tables or passages of the source.
# Legend:
# [1] = test system: mutant SHP2 (E76K) in live cells; design: method as in PMID 31953320, PMID 32744526; settings: cellular thermal shift assay; cited from earlier work
# MOLM-13 AML cells = test: Cell viability (CellTiter-Glo), MOLM-13; assay type: cell-based; settings: Homo sapiens
# Description: Inhibition of SHP2 has been reported to inhibit the growth of cancer cells including Kasumi-1 acute myeloid leukemia (AML) and KYSE-520 esophageal cancer cells ([30]). […] Thus, we treated two TNBC cell lines, BT-549 and MDA-MB-468, with SBI-4668 or the SHP2 allosteric inhibitor SHP099 at various concentrations and determined cell viability after 72 h, compared with the vehicle control (Fig. 4C). […] Next, we performed an 11-day colony formation assay with TNBC cells treated with SBI-4668 or SHP099 at 5, 10, or 20 μM (Fig. 4D).
# Finally, we evaluated the selectivity of our top two compounds, SBI-2130 and SBI-4668, on MOLM-13 AML cells in which SHP2 was depleted using CRISPR–Cas9 KO. High-efficiency Cas9-editing MOLM-13 cells were generated by transducing MOLM-13 cells with a Cas9 lentiviral construct. Stable clones were tested for editing efficiency by performing tracking of indels by decomposition analysis ([45]), and these MOLM-13-Cas9 cells were transduced with a lentiviral construct containing an AAVS1 single-guide RNA (sgRNA) and an mCherry reporter for bulk sorting of cells with successful AAVS1 editing. SHP2 KO was achieved by transducing MOLM-13-Cas9-mCherry cells with a lentivirus, containing SHP2 dual sgRNAs, resulting in ∼80% reduction of SHP2 protein levels (Fig. 4G). SBI-2130, SBI-4668, and the SHP2 allosteric inhibitor, SHP099, were tested in parallel on regular MOLM-13 cells (expressing WT SHP2) and MOLM-13-Cas9-mCherry cells with SHP2 KO. Cells were treated with inhibitors at various concentrations (ranging from 30 μM to 58 nM) or vehicle control (DMSO) for 72 h, before cell viability was assessed.
# Viability of AML and esophageal carcinoma cells was assessed using the ATP-depletion assay CellTiter-Glo (Promega). Cells were harvested at 1 × 10^6/ml to 2 × 10^6 cells/ml with cell numbers determined by trypan blue using the Countess Cell counter (Thermo Scientific) and resuspended in culture media. About 3000 cells (in 20 μl) were seeded in a 384-well format white and clear-bottom microplate (catalog no.: 781098; Greiner) spotted with test compound or vehicle control (DMSO) using an Echo 555 Liquid Handler. […] Luminescence was read on a Tecan Spark Multimode Microplate Reader, and data were analyzed using GraphPad Prism software.
# For SHP2 KO, dual sgRNAs targeting SHP2 were cloned in the pLentiGuide puro vector (Addgene plasmid no. 52963 from Dr Feng Zhang) using a published protocol ([50]). […] SHP2 KO was evaluated by immunoblotting. […] For SHP2 KO, MOLM-13-Cas9-mCherry cells were seeded in nontreated 6-well plates (2 × 10^6 cells/well in 2.5 ml), with cell numbers determined by trypan blue using the Countess Cell Counter (Thermo Scientific). […]
# [2] = 72 h, 30 μM to 58 nM, regular MOLM-13 expressing WT SHP2 (Fig. 4G), read-out: MOLM-13 cell viability IC50 (parallel to SHP2 KO)
SMILES,cellular target engagement with mutant SHP2 [1],"IC50 (MOLM-13 AML cells; MOLM-13, 72 h, 3 days in culture (Fig. 4B), read-out: MOLM-13 cell viability IC50)",IC50 (MOLM-13 AML cells; [2])
"O=C(Nc1ccccc1)c1cc(-c2ccc(/C=C3\Sc4ccccc4C3=O)o2)ccc1O [SBI-4668, (Z)-2-Hydroxy-5-(5-((3-oxobenzo[b]thiophen-2(3H)-ylidene)methyl)furan-2-yl)-N-phenylbenzamide]",direct target engagement,12 µM,15 µM
"Nc1ccc(NC(=O)c2cc(-c3ccc(/C=C4\Sc5ccccc5C4=O)o3)ccc2O)cc1 [SBI-2130, (Z)-N-(4-Aminophenyl)-2-hydroxy-5-(5-((3-oxobenzo[b]thiophen-2(3H)-ylidene)methyl)furan-2-yl)benzamide]",–,–,7.6 µM
